Several values for one entry are separate records, joined by “and”; a condition that tells them apart may be missing. Equal entries are not always repeated. Where two headings read alike, the source gives them in different places.
Tests used:
[1] = molecular target: T1, purified αvβ3 receptor (Homo sapiens, UniProt P05106+P06756); test: Binding to integrin αvβ3 receptors ([125I]echistatin competition)
T1 construct: purchased Chemicon CC1020
Method: Binding to Integrin αvβ3 Receptors
(§1) An aliquot of 100 μl was added to 96-well plates and incubated overnight at +4° C. Plates were washed once with buffer (50 mM Tris, pH 7,4, 100 mM NaCl, 2 mM CaCl2, 1 mM MgCl2, 1 mM MnCl2, 1% bovine serum albumin) and then incubated for another 2 hours at room temperature. Plates were washed twice with the same buffer and incubated for 3 hours at room temperature with the radioactive ligand [^125I]echistatin (Amersham Pharmacia Biotech) 0.05 nM in the presence of competition ligands. At the end of incubation, the wells were washed and the radioactivity determined using a gamma counter (Packard). Non-specific binding of the ligand was determined in the presence of excess cold echistatin (1 μM).
(§2) Evaluation of IC50 Parameters
(§3) The IC50 parameter was elaborated using “ALLFIT” software.

[2] = molecular target: T2, purified αvβ5 receptor (Homo sapiens, UniProt P06756+P18084); test: Binding to integrin αvβ5 receptors ([125I]echistatin competition)
T2 construct: purchased Chemicon CC1020
Method: Binding to Integrin αvβ5 Receptors
as §1, with “7.4,” for “7,4,”, “0.15” for “0.05”, “Non-specific ligand” for “Non-specific”, “binding” for “binding of the ligand”
as §2, §3

[3] = test system: PC3 human prostate carcinoma; test: Cytotoxicity, sulphorodamine B test, PC3; assay type: cell-based; details: PC3 cells, 72 h, cell survival; read-out: PC3 IC50 ± SD
Method: (§4) Cytotoxicity of the Conjugates on Different Tumor Cell Lines
(§5) To evaluate the effect of the compound on cell survival, the sulphorodamine B test was used. PC3 human prostate carcinoma, A498 human renal carcinoma, A2780 human ovarian carcinoma cells were used. A2780 and PC3 tumor cells were grown RPMI 1640 containing 10% fetal bovine serum (GIBCO), whereas A498 tumor cells were grown in EMEM containing 10% fetal bovine serum (GIBCO).
(§6) Tumor cells were seeded in 96-well tissue culture plates (Corning) at approximately 10% of confluence and were allowed to attach and recover for at least 24 h. […] The plates were incubated for 72 h at 37° C. At the end of the treatment, the plates were washed by remotion of the surnatant and addition of PBS 3 times. 200 μl PBS and 50 μl of cold 80% TCA were added. The plates were incubated on ice for at least 1 h. TCA was removed, the plates were washed 3 times for immersion in distilled-water and dried on paper and at 40° C. for 5 min. Then 200 μl of 0.4% sulphorodamine B in 1% acetic acid were added. The plates were incubated at room temperature for other 30 min. Sulphorodamine B was removed, the plates were washed for immersion in 1% acetic acid for 3 times, then they were dried on paper and at 40° C. for 5 min. Then 200 μl Tris 10 mM were added, the plates were kept under stirring for 20 min. The survival cell was determined as optical density by a Multiskan spectrofluorimeter at 540 nm. The amount of cells killed was calculated as the percentage decrease in sulphorodamine B binding compared with control cultures. The IC50 values were calculated with the “ALLFIT” program.

[4] = test system: A498 human renal carcinoma; test: Cytotoxicity, sulphorodamine B test, A498; assay type: cell-based; details: A498 cells, 72 h, cell survival; read-out: A498 IC50 ± SD
Method: as §4, §5, §6

[5] = test system: A2780 human ovarian carcinoma cells; test: Cytotoxicity, sulphorodamine B test, A2780; assay type: cell-based; details: 72 h, cell survival, read-out: A2780 IC50 ± SD
Method: as §4, §5, §6

Row | Structure (SMILES) | IC50 [1] | IC50 [2] | IC50 [3] | IC50 [4] | IC50 [5] | IC50 ([1]; inhibition of specific [125I]echistatin 0.05 nM binding, 3 hours at room temperature, read-out: αvβ3 IC50 ± SD) | IC50 ([2]; inhibition of specific [125I]echistatin 0.15 nM binding, 3 hours at room temperature, read-out: αvβ5 IC50 ± SD)
1 | CC[C@@]1(O)C(=O)OCc2c1cc1n(c2=O)Cc2c-1nc1ccccc1c2/C=N\OCCNC(=O)CCC(=O)NCc1ccc(C[C@@H]2NC(=O)[C@@H](Cc3ccccc3)NC(=O)[C@H](CC(=O)O)NC(=O)CNC(=O)[C@H](CCCNC(=N)N)NC2=O)cc1 [ST2724] | 7.27 ± 0.06 nM | 8.39 ± 0.07 nM | 4700 ± 400 nM | 4300 nM | 160 ± 1 nM |  | 
2 | CC[C@@]1(O)C(=O)OCc2c1cc1n(c2=O)Cc2c-1nc1ccccc1c2/C=N\OCCNC(=O)COCCOCCOCC(=O)NCc1ccc(C[C@@H]2NC(=O)[C@@H](Cc3ccccc3)NC(=O)[C@H](CC(=O)O)NC(=O)CNC(=O)[C@H](CCCNC(=N)N)NC2=O)cc1 [ST2742] | 12.5 ± 2.1 nM | 6.5 ± 0.03 nM | 27000 ± 3900 nM | 740 nM and 700 nM | 180 ± 10 nM |  | 
3 | CC[C@@]1(O)C(=O)OCc2c1cc1n(c2=O)Cc2c-1nc1ccccc1c2/C=N\OCCNC(=O)CCC[C@@H]1NC(=O)[C@@H](Cc2ccccc2)NC(=O)[C@H](CC(=O)O)NC(=O)CNC(=O)[C@H](CCCNC(=N)N)NC1=O [ST2686] |  |  | 15000 ± 1500 nM | 3200 nM | 400 ± 30 nM | 0.59 ± 0.01 nM | 0.37 ± 0.01 nM
